# Source: article PMC3215729, “Rv2607 from Mycobacterium tuberculosis Is a Pyridoxine 5′-Phosphate Oxidase with Unusual Substrate Specificity” (PLoS ONE, 2011)
# Target: T1, Rv2607 (PNPOx) (Mycobacterium tuberculosis, UniProt P9WIJ1)
# T1 construct: gene pdxH
# T1 sequence (P9WIJ1 whole entry): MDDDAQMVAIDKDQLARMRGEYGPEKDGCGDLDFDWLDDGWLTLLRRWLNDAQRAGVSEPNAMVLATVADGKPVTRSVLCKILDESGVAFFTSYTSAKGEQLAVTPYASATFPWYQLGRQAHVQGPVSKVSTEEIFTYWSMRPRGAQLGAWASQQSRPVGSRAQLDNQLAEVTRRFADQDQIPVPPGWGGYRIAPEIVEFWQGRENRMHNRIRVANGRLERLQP
structure (smiles),measurement,value
Cc1cc2nc3c(=O)[nH]c(=O)nc-3n(C[C@H](O)[C@H](O)[C@H](O)COP(=O)(O)O)c2cc1C [FMN],native nESI-MS of intact complex; ESI-MS identification of extracted cofactor,The yellow cofactor bound tightly to Rv2607 as purified and was unambiguously identified as FMN
